Laboratory results taken from patent US6110901A (priority 1992, dated 2000).
Where “and” joins values, the source holds several entries; their conditions need not be identical. Equal values may be shown once. Read-outs that look alike come from different tables or passages of the source.

Assays:
HeLa cells = assay: Cytotoxicity in uninfected HeLa cell cultures, MTT cell viability assay; format: cell-based; details: MTT at 48 hours
Description: (§1) Mammalian cell lines, MDCK CCL34 and HeLa cells CCL2 (both obtained under those accession numbers from ATCC culture) are plated in 96 well microtiter dishes at a density of 3.5×10^4 cells per well and infected with virus at low multiplicity followed by treatment with drug 24 hours after plating of cells; drug concentrations range from 0.025-12.5 mM. MDCK cells are infected with influenza virus (strain A/NWS) and HeLA cells are infected with HRV 14-14VR-284 (obtained from ATCC) (human rhinovirus 14) or CVB3 VR30 (coxsackie virus B3 strain Nancy obtained from ATCC); replicate uninfected cell cultures are treated with drug as toxicity control. At 48 hours after infection the extent of virus growth is determined by ELISA in the case of influenza virus or by the MTT (tetrazolium dye) cell viability assay in the cases of HRV 14 and CVB3. The influenza A (A/NWS)VR-129 (ATCC) virus ELISA assay utilizes a primary monoclonal antibody to the virus hemagglutinin protein and a secondary antibody conjugated to B-galactosidase. Cytotoxicity of drugs in uninfected cell cultures is determined by MTT cell viability assay at 48 hours after drug treatment

MDCK cells = assay: cells; format: cell-based; details: Canis lupus familiaris, 48 h, read-out: IC50 Value Tox (beside Flu A/NWS)
[1] = system: HRV 14 (human rhinovirus 14); assay: HRV 14 growth in HeLa cells by MTT cell viability assay; format: cell-based; details: Rhinovirus B, MTT at 48 hours after infection
Description: as §1

[2] = system: influenza virus (strain A/NWS); assay: microbe, parasite or virus in culture; format: cell-based; details: MDCK, 48 h, read-out: IC50 Value Flu A/NWS
[3] = system: CVB3 (coxsackie virus B3 strain Nancy); assay: CVB3 growth in HeLa cells by MTT cell viability assay; format: cell-based; details: Enterovirus B, MTT at 48 hours after infection
Description: as §1

[4] = system: influenza A virus (strain A/NWS); details: mouse, in vivo
VSV RNA polymerase = VSV RNA polymerase (Vesicular stomatitis Indiana virus, UniProt P03523); format: biochemical, Vesicular stomatitus virus (VSV)
[5] = target: influenza virus RNA polymerase (Influenza A virus, UniProt P03431); format: biochemical
[6] = read-out: IC50 Value Tox (beside CVB3)
[7] = Homo sapiens, read-out: IC50 Value Tox (beside HRV 14)
[8] = Homo sapiens, read-out: IC50 Value Tox (beside CVB3)

influenza virus RNA polymerase, sequence (P03431 whole entry, looked up): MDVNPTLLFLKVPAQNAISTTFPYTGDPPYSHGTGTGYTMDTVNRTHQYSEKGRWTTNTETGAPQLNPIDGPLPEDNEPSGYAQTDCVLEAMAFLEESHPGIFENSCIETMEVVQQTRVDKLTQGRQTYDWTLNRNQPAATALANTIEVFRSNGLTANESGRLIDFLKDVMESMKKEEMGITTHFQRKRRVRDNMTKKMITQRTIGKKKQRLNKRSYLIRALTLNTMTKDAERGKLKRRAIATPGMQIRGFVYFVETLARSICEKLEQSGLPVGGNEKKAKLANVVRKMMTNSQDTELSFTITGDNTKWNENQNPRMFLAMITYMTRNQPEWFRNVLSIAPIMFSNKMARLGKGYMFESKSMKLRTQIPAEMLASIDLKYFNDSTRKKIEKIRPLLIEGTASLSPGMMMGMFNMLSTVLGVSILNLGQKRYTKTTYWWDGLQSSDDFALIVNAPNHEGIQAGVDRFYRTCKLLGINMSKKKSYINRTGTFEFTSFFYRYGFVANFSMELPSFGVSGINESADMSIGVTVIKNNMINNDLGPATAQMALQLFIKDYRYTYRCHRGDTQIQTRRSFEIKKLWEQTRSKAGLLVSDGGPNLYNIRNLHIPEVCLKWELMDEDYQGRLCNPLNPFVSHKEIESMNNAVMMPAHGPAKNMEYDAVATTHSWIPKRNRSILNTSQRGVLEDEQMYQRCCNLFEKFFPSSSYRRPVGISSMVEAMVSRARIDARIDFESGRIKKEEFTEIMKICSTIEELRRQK
VSV RNA polymerase, sequence (P03523 whole entry, looked up): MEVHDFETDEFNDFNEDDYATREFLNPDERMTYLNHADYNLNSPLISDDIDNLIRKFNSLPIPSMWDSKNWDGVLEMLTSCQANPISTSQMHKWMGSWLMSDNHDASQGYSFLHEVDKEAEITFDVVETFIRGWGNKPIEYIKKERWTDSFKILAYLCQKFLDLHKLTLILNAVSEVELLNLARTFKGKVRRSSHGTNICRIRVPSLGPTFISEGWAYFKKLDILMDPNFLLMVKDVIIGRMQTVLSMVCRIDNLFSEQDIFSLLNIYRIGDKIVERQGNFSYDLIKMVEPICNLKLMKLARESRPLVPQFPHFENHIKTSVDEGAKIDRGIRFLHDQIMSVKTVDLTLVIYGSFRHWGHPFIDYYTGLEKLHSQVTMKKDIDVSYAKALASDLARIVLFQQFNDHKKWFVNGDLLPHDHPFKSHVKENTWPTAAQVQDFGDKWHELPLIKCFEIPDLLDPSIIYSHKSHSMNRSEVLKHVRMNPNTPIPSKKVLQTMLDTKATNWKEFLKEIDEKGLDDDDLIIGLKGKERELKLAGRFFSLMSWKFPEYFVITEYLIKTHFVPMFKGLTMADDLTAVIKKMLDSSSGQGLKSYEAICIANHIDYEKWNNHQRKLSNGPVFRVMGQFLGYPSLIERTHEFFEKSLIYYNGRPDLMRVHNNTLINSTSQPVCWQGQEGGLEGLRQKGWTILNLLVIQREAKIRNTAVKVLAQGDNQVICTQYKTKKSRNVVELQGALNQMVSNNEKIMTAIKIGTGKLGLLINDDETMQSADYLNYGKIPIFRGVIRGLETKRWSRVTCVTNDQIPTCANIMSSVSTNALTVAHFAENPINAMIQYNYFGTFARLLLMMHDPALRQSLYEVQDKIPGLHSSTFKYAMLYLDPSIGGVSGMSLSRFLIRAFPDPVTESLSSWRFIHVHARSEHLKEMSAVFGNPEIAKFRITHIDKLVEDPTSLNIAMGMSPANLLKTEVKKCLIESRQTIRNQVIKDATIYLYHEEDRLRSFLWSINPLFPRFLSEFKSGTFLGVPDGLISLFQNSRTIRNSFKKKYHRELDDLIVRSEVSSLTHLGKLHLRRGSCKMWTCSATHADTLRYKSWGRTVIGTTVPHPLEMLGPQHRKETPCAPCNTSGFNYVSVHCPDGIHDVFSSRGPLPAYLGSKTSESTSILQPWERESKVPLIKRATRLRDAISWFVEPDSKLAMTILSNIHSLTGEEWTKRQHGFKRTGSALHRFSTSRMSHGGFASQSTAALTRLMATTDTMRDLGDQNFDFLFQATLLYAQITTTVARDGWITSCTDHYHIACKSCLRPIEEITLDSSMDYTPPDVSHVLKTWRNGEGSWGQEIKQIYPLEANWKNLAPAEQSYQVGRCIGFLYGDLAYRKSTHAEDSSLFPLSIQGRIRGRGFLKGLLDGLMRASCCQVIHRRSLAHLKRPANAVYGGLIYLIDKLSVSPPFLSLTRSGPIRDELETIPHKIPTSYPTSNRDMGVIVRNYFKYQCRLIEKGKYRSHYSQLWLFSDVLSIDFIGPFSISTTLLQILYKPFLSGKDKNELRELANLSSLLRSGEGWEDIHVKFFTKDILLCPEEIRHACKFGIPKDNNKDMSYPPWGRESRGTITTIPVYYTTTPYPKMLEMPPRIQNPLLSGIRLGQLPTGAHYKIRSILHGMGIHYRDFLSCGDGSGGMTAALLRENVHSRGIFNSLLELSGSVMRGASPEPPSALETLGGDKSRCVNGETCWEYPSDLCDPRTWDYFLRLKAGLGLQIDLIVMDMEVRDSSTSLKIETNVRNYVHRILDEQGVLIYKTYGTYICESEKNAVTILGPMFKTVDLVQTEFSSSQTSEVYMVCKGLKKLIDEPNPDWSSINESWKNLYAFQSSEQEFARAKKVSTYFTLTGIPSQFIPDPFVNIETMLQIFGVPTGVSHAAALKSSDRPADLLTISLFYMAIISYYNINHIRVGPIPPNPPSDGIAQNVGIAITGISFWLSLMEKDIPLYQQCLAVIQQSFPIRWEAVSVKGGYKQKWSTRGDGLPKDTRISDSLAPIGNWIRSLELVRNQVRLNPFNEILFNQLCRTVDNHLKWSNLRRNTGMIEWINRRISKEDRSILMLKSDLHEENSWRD

Row | SMILES | IC50 (MDCK cells) | IC50 (HeLa cells; [7]) | IC50 [1] | IC50 [2] | other results
1 | [N-]=[N+]=N[C@H]1C[C@H](n2ccc(N)nc2=O)O[C@@H]1CO [3'-AzdC] | – | – | – | – | IC50 (HeLa cells; [6]): > 12500 µM
2 | CO[C@H]1[C@@H](O)[C@H](n2ccc(N)nc2=O)O[C@@H]1CO [3'-OMeC] | > 50000 µM | > 50000 µM | – | – | –
3 | CO[C@H]1[C@@H](O)[C@H](n2cnc3c(N)ncnc32)O[C@@H]1CO [3'-OMeA] | > 50000 µM | > 50000 µM | – | – | –
4 | CO[C@H]1[C@@H](O)[C@H](n2ccc(=O)[nH]c2=O)O[C@@H]1CO [3'-OMeU] | > 50000 µM | > 50000 µM | – | – | –
5 | Nc1nc2c(ncn2[C@@H]2O[C@H](CO)C[C@H]2O)c(=O)[nH]1 [3'-dG, 3'-deoxyriboguanine] | 2100 µM | 3400 µM | 280 µM | 270 µM | –
6 | Nc1ncnc2c1ncn2[C@@H]1O[C@H](CO)C[C@H]1O [3'-dA, 3'-deoxyriboadenine] | 1400 µM | 130 µM | 48 µM | 800 µM | –
7 | O=c1ccn([C@@H]2O[C@H](CO)C[C@H]2O)c(=O)[nH]1 [3'-dU, 3'-deoxyribouracil] | 12500 µM | 2400 µM | 27 µM | 85 µM | IC50 [3]: 90 µM; IC50 (HeLa cells; [8]): 2400 µM; MST [4]: > 14 days and 10 days; Protection of animals in murine model of influenza A virus infection [4]: significant protection; Toxicity in mice [4]: appears to have toxicity
8 | [N-]=[N+]=N[C@H]1C[C@H](n2ccc(=O)[nH]c2=O)O[C@@H]1CO [3'-AzdU] | – | – | – | – | IC50 (HeLa cells; [6]): > 12500 µM
9 | CO[C@H]1[C@@H](O)[C@H](n2cnc3c(=O)[nH]c(N)nc32)O[C@@H]1CO [3'-OMeG] | > 50000 µM | > 50000 µM | – | – | –
10 | Nc1ccn([C@@H]2O[C@H](COP(=O)(O)OP(=O)(O)OP(=O)(O)O)C[C@H]2O)c(=O)n1 [3'-d CTP, 3'-deoxy-CTP] | – | – | – | – | % Inhibition (VSV RNA polymerase): 0%; Effect on VSV RNA polymerase (VSV RNA polymerase): does not inhibit; Activity against the influenza virus RNA polymerase [5]: low to moderately inhibitory activity
11 | Nc1ccn([C@@H]2O[C@H](CO)C[C@H]2O)c(=O)n1 [3'-dC, 3'-deoxyribocytosine] | 5000 µM | 1800 µM | 25 µM | 900 µM | IC50 [3]: 90 µM; IC50 (HeLa cells; [8]): 1800 µM; % ILS (increase in life span) [4]: 10% and 20%; % Survival (14 Days) [4]: 0% and 10%; Antiviral activity in murine model of influenza A virus infection [4]: minimal antiviral activity; MST [4]: 11 days and 12 days
12 | O=c1ccn([C@@H]2O[C@H](COP(=O)(O)OP(=O)(O)OP(=O)(O)O)C[C@H]2O)c(=O)[nH]1 [3'-d UTP, 3'-deoxy UTP] | – | – | – | – | Effect on VSV RNA polymerase (VSV RNA polymerase): little or no effect; Activity against the influenza virus RNA polymerase [5]: moderately active
13 | Nc1nc2c(ncn2[C@@H]2O[C@H](COP(=O)(O)OP(=O)(O)OP(=O)(O)O)C[C@H]2O)c(=O)[nH]1 [3'-d GTP, 3'-deoxy-GTP] | – | – | – | – | % Inhibition (VSV RNA polymerase): 13% and 7%; Effect on VSV RNA polymerase (VSV RNA polymerase): only weakly inhibitory; % Inhibition [5]: 55%; Activity against the influenza virus RNA polymerase [5]: fairly good inhibitor
